# Laboratory results: patent US6413986B1, “[1-indanon-2-yl]methylpiperidines” (Aventis Pharmaceuticals Inc., priority 1991, dated 2002)
# pIC50: −log10 of the molar value.
# Molecular target: T1, Acetylcholinesterase (Rattus norvegicus, UniProt P37136)
# T1 construct: Male Wistar rats are decapitated, brains rapidly removed, corpora striata dissected free, weighed and homogenized; from tissue; host or cells: rat brain corpora striata homogenate (male Wistar rats)
# T1 sequence (P37136 32-614): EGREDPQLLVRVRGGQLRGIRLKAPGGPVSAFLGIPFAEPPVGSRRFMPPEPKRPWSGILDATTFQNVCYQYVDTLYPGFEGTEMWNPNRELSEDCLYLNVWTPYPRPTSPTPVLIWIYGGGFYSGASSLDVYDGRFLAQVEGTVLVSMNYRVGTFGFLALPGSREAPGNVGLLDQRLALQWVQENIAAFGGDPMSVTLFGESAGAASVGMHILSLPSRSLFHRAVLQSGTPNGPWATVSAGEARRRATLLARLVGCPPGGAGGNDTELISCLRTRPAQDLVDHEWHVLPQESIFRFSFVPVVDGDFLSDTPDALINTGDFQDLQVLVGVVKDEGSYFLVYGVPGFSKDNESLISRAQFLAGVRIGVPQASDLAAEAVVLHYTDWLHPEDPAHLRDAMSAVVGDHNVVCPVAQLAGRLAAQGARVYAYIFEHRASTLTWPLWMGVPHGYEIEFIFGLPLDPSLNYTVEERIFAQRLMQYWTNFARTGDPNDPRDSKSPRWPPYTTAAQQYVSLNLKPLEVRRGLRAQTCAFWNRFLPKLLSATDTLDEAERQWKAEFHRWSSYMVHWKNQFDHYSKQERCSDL
# Assay: inhibition of acetyl cholinesterase activity (acetylthiocholine/DTNB spectrophotometric assay, rat striatal homogenate)
# Type: biochemical, Male Wistar rats
# Conditions: rat corpora striata homogenate; preincubated for 10 minutes at 37° C.; substrate acetylthiocholine 5 mM final; DTNB 0.5 mM; 412 nm; log-probit analysis
# Experimental: The [1-indanon-2-yl]methylpiperidines of the present invention are useful as agents for the relief of memory dysfunction, particularly dysfunctions associated with decreased cholinergic activity such as those found in Alzheimer's disease.
# 4. A 2 mM stock solution of the test drug is made up in a suitable solvent and q.sed to volume with 0.5 mM DTNB (reagent 3). Drugs are serially diluted (1:10) such that the final concentration (in cuvette) is 10^−4M and screened for activity. If active, IC50 values are determined from the inhibitory activity of subsequent concentrations.
# Male Wistar rats are decapitated, brains rapidly removed, corpora striata dissected free, weighed and homogenized in 19 volumes (approximately 7 mg protein/ml) of 0.05 M sodium phosphate, pH 7.2 using a Potter-Elvehjem homogenizer. A 25 μl aliquot of this suspension is added to 1 ml of the vehicle or various concentrations of the test drug and preincubated for 10 minutes at 37° C.
# Enzyme activity is measured with the Beckman DU-50 spectrophotometer. This method can be used for IC50 determinations and for measuring kinetic constants.
# Reagents are added to the blank and sample cuvettes as follows:
# Blank values are determined for each run to control for non-enzymatic hydrolysis of substrate and these values are automatically subtracted by the kindata program available on kinetics soft-pac module. This program also calculates the rate of absorbance change for each cuvette.
# Substrate concentration is 10 mM diluted 1:2 in assay yielding final concentration of 5 mM. DTNB concentration is 0.5 mM final concentration
# % Inhibition=slope control-slope drug/slope control×100
# IC50 values are calculated from log-probit analysis.
row,SMILES,pIC50
1,CNC(=O)Oc1ccc2c(c1)C(=O)C(CC1CCN(Cc3ccccc3)CC1)C2 (stereo not shown) [1-Benzyl-4-[[6-methylaminocarbonyloxy)-1-indanon]-2-yl]methylpiperidine],5.87
2,CNC(=O)Oc1ccc2c(c1)C(=O)C(CC1CCN(Cc3cccc(F)c3)CC1)C2 (stereo not shown) [1-(3-Fluorobenzyl)-4-[[6-(methylaminocarbonyloxy)-1-indanon]-2-yl]methylpiperidine],5.82
3,CCCCNC(=O)Oc1ccc2c(c1)C(=O)C(CC1CCN(Cc3ccccc3)CC1)C2 (stereo not shown) [1-Benzyl-4-[[6-(butylaminocarbonyloxy)-1-indanon]-2-yl]methylpiperidine],5.84
4,O=C(NCc1ccccc1)Oc1ccc2c(c1)C(=O)C(CC1CCN(Cc3cccc(F)c3)CC1)C2 (stereo not shown) [1-(3-Fluorobenzyl)-4-[[6-(benzylaminocarbonyloxy)-1-indanon]-2-yl]-methylpiperidine],5.50
